For orientation: IC50 means the concentration that gives 50% inhibition.

The values that follow come from patent US11780830B2, “Triazolone derivatives or salts thereof and pharmaceutical compositions comprising the same” (YUHAN CORPORATION, priority 2018, dated 2023).

What all share (assay type): biochemical
Test [1] addresses T1, recombinant human VAP-1 (Homo sapiens, UniProt Q16853).
T1 construct: purchased R&D systems
T1 sequence (Q16853 1-763): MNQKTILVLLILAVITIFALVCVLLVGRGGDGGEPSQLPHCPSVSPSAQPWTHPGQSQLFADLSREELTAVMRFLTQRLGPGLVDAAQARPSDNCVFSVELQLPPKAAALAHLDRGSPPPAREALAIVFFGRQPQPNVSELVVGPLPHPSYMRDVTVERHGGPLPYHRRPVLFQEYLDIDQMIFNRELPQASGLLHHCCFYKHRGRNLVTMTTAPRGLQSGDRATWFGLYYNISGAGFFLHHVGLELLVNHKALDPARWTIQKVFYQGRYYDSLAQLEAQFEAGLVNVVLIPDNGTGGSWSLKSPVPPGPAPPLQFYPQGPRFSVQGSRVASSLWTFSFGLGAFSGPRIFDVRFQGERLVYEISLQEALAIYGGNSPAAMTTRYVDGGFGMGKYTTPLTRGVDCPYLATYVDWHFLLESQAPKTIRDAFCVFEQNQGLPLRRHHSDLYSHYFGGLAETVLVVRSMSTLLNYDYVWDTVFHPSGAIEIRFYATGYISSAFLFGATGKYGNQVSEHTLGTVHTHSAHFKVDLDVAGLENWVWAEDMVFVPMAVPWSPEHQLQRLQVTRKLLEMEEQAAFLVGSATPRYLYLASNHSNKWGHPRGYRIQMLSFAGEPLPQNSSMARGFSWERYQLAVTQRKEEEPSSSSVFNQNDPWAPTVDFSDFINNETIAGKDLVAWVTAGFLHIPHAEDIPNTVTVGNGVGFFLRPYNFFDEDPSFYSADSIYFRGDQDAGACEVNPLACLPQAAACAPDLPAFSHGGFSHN
Briefly: Activity on recombinant human VAP-1, HRP-coupled Amplex Red hydrogen peroxide assay. To be noted: substrate 1 mM benzylamine; compound incubated with enzyme at 37° C. for 30 minutes; pH 7.4; read-out: Inhibitory Activity (IC50, nM) human VAP-1. As to the method:
(§1) The compounds according to the present technology were evaluated in terms of activity on recombinant human VAP-1 (R&D systems) by measuring the level of hydrogen peroxide in horseradish peroxidase (HRP)-coupled reaction using Amplex Red Hydrogen Peroxide Assay Kit (Molecular Probes, Invitrogen, USA). The experiment was carried out at room temperature using benzylamine as a substrate. In the HRP-coupled reaction, hydrogen peroxide oxidation of 10-acetyl-3,7-dihydroxyphenoxazine (Amplex Red reagent) produces resorufin, which is a highly fluorescent compound. Briefly, the test compound was dissolved in dimethyl sulfoxide (DMSO) at a concentration of 20 mM. The dose-response assessment was made by 1:3 serial dilution in DMSO, thereby creating an 8 point curve. The concentration of the upper part was controlled according to the efficacy of the compounds, followed by dilution with a reaction buffer solution to obtain a final DMSO concentration less than 1%. To each well of a 96 black well plate, human VAP-1 purified in 50 mM sodium phosphate buffer solution (pH7.4) was added. The test compounds dissolved in DMSO were incubated with the human VAP-1 enzymes at 37° C. for 30 minutes. After 30-minute incubation, each well is added with a reaction mixture containing 200 uM Amplex Red reagent prepared from 50 mM sodium phosphate buffer solution (pH 7.4), 1 mM benzylamine, and 1 U/mL HRP. Fluorescence intensity was measured at several time points during 1-2 hours using a microplate reader (Flexstation3, Molecular Devices) under the wavelength condition exciting at 544 nm and reading the emission at 590 nm. The inhibitory effect of the compounds was measured as a decrease (%) in the signal rate as compared to the control group without any inhibitor (only diluted DMSO). Data was fixed to a logistic model with four variables and IC50 value was calculated using GraphPad Prism program.

Test [2] deals with T2, recombinant human MAO-A (monoamine oxidase-A) (Homo sapiens, UniProt P21397).
T2 construct: purchased Sigma-Aldrich
T2 sequence (P21397 1-527): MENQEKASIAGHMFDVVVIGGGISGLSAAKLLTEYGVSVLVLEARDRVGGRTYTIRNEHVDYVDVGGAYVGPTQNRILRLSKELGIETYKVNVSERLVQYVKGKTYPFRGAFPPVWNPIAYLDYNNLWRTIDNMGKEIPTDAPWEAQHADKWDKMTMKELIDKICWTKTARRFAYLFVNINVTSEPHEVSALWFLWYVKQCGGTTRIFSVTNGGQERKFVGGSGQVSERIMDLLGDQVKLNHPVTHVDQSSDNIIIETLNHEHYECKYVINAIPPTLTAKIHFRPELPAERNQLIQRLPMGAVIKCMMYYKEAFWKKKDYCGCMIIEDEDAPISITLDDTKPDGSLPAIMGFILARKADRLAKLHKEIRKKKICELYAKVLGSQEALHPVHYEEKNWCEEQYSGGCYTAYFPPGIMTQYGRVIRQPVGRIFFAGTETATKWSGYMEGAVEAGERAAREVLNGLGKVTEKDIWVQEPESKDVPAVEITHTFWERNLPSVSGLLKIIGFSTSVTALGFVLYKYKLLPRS
Briefly: Activity on recombinant human MAO-A, method similar to the VAP-1 assay. The following applies: substrate 0.5 mM tyramine; read-out: Inhibitory Activity (IC50, nM) MAO-A. As to the method:
as §1
(§2) In addition, the compounds according to the present technology were evaluated in terms of activity on a recombinant human MAO-A (monoamine oxidase-A, Sigma-Aldrich) and a recombinant human MAO-B (monoamine oxidase-B, Sigma-Aldrich) by using as substrates, 0.5 mM tyramine and 1 mM benzylamine, respectively, with a method similar to the activity evaluation method for recombinant human VAP-1. The compounds according to the present technology were also evaluated in terms of activity on a recombinant human DAO (diamine oxidase, R&D systems) by using as a substrate 1 mM putrescine with a method similar to the activity evaluation method for recombinant human VAP-1.

In test [3] the target is T3, recombinant human DAO (diamine oxidase) (Homo sapiens, UniProt P19801).
T3 construct: purchased R&D systems
T3 sequence (P19801 20-751): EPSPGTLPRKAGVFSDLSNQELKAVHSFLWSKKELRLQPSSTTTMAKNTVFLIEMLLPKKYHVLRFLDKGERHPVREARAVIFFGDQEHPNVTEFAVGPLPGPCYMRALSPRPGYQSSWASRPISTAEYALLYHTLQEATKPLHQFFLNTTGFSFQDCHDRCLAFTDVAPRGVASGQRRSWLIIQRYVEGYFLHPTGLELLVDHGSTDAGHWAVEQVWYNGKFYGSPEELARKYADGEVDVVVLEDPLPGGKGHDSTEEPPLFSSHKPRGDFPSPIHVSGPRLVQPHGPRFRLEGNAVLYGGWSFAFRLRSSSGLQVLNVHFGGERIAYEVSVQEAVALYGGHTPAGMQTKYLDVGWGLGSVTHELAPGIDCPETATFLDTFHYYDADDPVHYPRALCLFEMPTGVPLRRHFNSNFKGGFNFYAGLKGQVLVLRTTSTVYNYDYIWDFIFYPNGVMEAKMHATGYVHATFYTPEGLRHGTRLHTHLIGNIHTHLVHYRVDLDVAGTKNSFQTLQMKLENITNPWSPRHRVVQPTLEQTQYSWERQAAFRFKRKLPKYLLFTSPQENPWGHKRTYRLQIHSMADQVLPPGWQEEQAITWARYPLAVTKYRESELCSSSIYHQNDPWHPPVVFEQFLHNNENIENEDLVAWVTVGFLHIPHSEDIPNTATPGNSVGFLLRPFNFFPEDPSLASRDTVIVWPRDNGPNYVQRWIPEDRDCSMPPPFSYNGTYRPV
Briefly: Activity on recombinant human DAO, method similar to the VAP-1 assay. The following applies: substrate 1 mM putrescine; read-out: Inhibitory Activity (IC50, nM) DAO. As to the method: as §1, §2

Structures can show the parent of a compound that is named as a salt.

Regarding `CC(=O)Nc1cc(-c2ccc(Cn3cnn(C/C(=C\F)CN)c3=O)s2)ccn1` [Example 41, N-4-[5-(1-[(2Z)-2-(aminomethyl)-3-fluoroprop-2-en-1-yl]-5-oxo-1,5-dihydro-4H-1,2,4-triazol-4-ylmethyl)thiophen-2-yl]pyridin-2-ylacetamide hydrochloride], the IC50 in test [1] stood at 1.3 nM.
As for `NC/C(=C\F)Cn1ncn(Cc2ccc(/C=C/c3cnc4[nH]c(=O)oc4c3)s2)c1=O` [Example 122, 6-[(E)-2-[5-[[1-[(E)-2-(aminomethyl)-3-fluoro-allyl]-5-oxo-1,2,4-triazol-4-yl]methyl]-2-thienyl]vinyl]-3H-oxazolo[4,5-b]pyridin-2-one hydrochloride], the IC50 in test [2] is above 100000 nM; in test [1], 1 nM; in test [3] it was 680 nM.
Taken in the same sequence, the figures for `N#Cc1ncc(-c2ccc(Cn3cnn(C/C(=C/F)CN)c3=O)s2)cn1` [Example 54, 5-[5-(1-[(2E)-2-(aminomethyl)-3-fluoroprop-2-en-1-yl]-5-oxo-1,5-dihydro-4H-1,2,4-triazol-4-ylmethyl)thiophen-2-yl]pyrimidine-2-carbonitrile hydrochloride] were above 10000 nM, 1.7 nM and 110 nM.
As to `NC/C(=C/F)Cn1ncn(CCc2cccs2)c1=O` [Example 140, 2-[(2Z)-2-(aminomethyl)-3-fluoroprop-2-en-1-yl]-4-[2-(thiophen-2-yl)ethyl]-2,4-dihydro-3H-1,2,4-triazol-3-one], the IC50 in test [1] was found to be 31 nM.
The same measure, in the same setting: the figure for `NC/C(=C/F)Cn1ncn(Cc2ccc(-c3cccc(-c4nnc[nH]4)c3)s2)c1=O` [Example 32, 2-[(2Z)-2-(aminomethyl)-3-fluoroprop-2-en-1-yl]-4-(5-[3-(4H-1,2,4-triazol-3-yl)phenyl]thiophen-2-ylmethyl)-2,4-dihydro-3H-1,2,4-triazol-3-one] is 1.2 nM; for `NC/C(=C/F)Cn1ncn(Cc2ccc(-c3ccc(C(=O)N4CCOCC4)cc3)s2)c1=O` [Example 26, 2-[(2Z)-2-(aminomethyl)-3-fluoroprop-2-en-1-yl]-4-(5-[4-(morpholin-4-ylcarbonyl)phenyl]thiophen-2-ylmethyl)-2,4-dihydro-3H-1,2,4-triazol-3-one hydrochloride] it is 1.4 nM; for `NC/C(=C/F)Cn1ncn(Cc2ccc(-c3ccc4c(c3)NC(=O)CO4)s2)c1=O` [Example 89, 6-[5-(1-[(2Z)-2-(aminomethyl)-3-fluoroprop-2-en-1-yl]-5-oxo-1,5-dihydro-4H-1,2,4-triazol-4-ylmethyl)thiophen-2-yl]-2H-1,4-benzoxazin-3(4H)-one hydrochloride] it is 1.9 nM.
Take `NC/C(=C/F)Cn1ncn(Cc2ccc(-c3ccc4c(c3)NC(=O)OC4)s2)c1=O` [Example 99, 7-[5-(1-[(2Z)-2-(aminomethyl)-3-fluoroprop-2-en-1-yl]-5-oxo-1,5-dihydro-4H-1,2,4-triazol-4-ylmethyl)thiophen-2-yl]-1,4-dihydro-2H-3,1-benzoxazin-2-one hydrochloride]: in test [1], the IC50 came to 1.2 nM.
Same read-out and setting: the figure for `NC/C(=C/F)Cn1ncn(Cc2ccc(-c3ccc(C(F)(F)F)nc3)s2)c1=O` [Example 48, 2-[(2Z)-2-(aminomethyl)-3-fluoroprop-2-en-1-yl]-4-(5-[6-(trifluoromethyl)pyridin-3-yl]thiophen-2-ylmethyl)-2,4-dihydro-3H-1,2,4-triazol-3-one hydrochloride] is 1.6 nM; for `NC/C(=C/F)Cn1ncn(Cc2ccc(-c3ccc(N4CCOCC4)nc3)s2)c1=O` [Example 51, 2-[(2Z)-2-(aminomethyl)-3-fluoroprop-2-en-1-yl]-4-(5-[6-(morpholin-4-yl)pyridin-3-yl]thiophen-2-ylmethyl)-2,4-dihydro-3H-1,2,4-triazol-3-one hydrochloride] it is 0.75 nM.
For the compound `COc1ccc(-c2ccc(Cn3cnn(C/C(=C\F)CN)c3=O)s2)cn1` [Example 44, 2-[(2Z)-2-(aminomethyl)-3-fluoroprop-2-en-1-yl]-4-[5-(6-methoxypyridin-3-yl)thiophen-2-yl]methyl-2,4-dihydro-3H-1,2,4-triazol-3-one hydrochloride], in test [1], the IC50 amounted to 1.9 nM.
Same read-out and setting: to `Cc1cc(-c2ccc(Cn3cnn(C/C(=C\F)CN)c3=O)s2)cc2c1NC(=O)CC2` [Example 76, 6-[5-(1-[(2Z)-2-(aminomethyl)-3-fluoroprop-2-en-1-yl]-5-oxo-1,5-dihydro-4H-1,2,4-triazol-4-ylmethyl)thiophen-2-yl]-8-methyl-3,4-dihydroquinolin-2(1H)-one hydrochloride] belongs 2.7 nM; to `NC/C(=C/F)Cn1ncn(Cc2ccc(-c3ccc(-c4nnc[nH]4)cc3)s2)c1=O` [Example 30, 2-[(2Z)-2-(aminomethyl)-3-fluoroprop-2-en-1-yl]-4-(5-[4-(4H-1,2,4-triazol-3-yl)phenyl]thiophen-2-ylmethyl)-2,4-dihydro-3H-1,2,4-triazol-3-one], 0.97 nM.
